# The supplement of paper PMC10307832
# Assays:
# Experiment in all cases: relative viability (nuclei count vs DMSO), 5 days (fraction); higher = more cells survive
# 201T = tested on: 201T
# Outline: (§1)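 Lung cancer cell lines in 1536-well plates were dosed by pin tool the day after seeding, either with one drug alone or with a fixed anchor-drug dose plus five library-drug doses (not always all listed) in √10 steps. After 5 days, cells were fixed and their nuclei stained in one step (final 0.05% Triton X-100, 1% formaldehyde, 1 ug/ml Hoechst), then counted on 4× images. Relative viability is the nuclei count in treated wells divided by that in vehicle wells. Values are medians of duplicate plates.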
# A-427 = tested on: A-427
# Outline: as §1
# BEN = tested on: BEN
# Outline: as §1
# COR-L23 = tested on: COR-L23
# Outline: as §1
# EKVX = tested on: EKVX
# Outline: as §1
# EMC-BAC-2 = tested on: EMC-BAC-2
# Outline: as §1
# EPLC-272H = tested on: EPLC-272H
# Outline: as §1
# HCC-44 = tested on: HCC-44
# Outline: as §1
# LCLC-103H = tested on: LCLC-103H
# Outline: as §1
# LXF-289 = tested on: LXF-289
# Outline: as §1
# NCI-H1650 = tested on: NCI-H1650
# Outline: as §1
# NCI-H1651 = tested on: NCI-H1651
# Outline: as §1
# NCI-H1793 = tested on: NCI-H1793
# Outline: as §1
# NCI-H2023 = tested on: NCI-H2023
# Outline: as §1
# NCI-H2087 = tested on: NCI-H2087
# Outline: as §1
# NCI-H2126 = tested on: NCI-H2126
# Outline: as §1
# NCI-H3122 = tested on: NCI-H3122
# Outline: as §1
# NCI-H322M = tested on: NCI-H322M
# Outline: as §1
# NCI-H358 = tested on: NCI-H358
# Outline: as §1
# NCI-H596 = tested on: NCI-H596
# Outline: as §1
# SK-LU-1 = tested on: SK-LU-1
# Outline: as §1
# SW 1573 = tested on: SW 1573
# Outline: as §1
# UMC-11 = tested on: UMC-11
# Outline: as §1
structure (smiles),measurement,setting,value
C=C1C(=O)O[C@@H](CCCCCCCC)[C@@H]1C(=O)O [C-75] + O=C(c1cc(Cc2n[nH]c(=O)c3ccccc23)ccc1F)N1CCN(C(=O)C2CC2)CC1 [Olaparib] (partner 8 µM),relative viability,201T; first compound 0.08 µM,0.812
same,relative viability,201T; first compound 0.253 µM,0.897
same,relative viability,201T; first compound 0.8 µM,0.84
same,relative viability,201T; first compound 2.53 µM,0.605
same,relative viability,201T; first compound 8 µM,0.87
same,relative viability,A-427; first compound 0.08 µM,0.718
same,relative viability,A-427; first compound 0.253 µM,0.69
same,relative viability,A-427; first compound 0.8 µM,0.678
same,relative viability,A-427; first compound 2.53 µM,0.708
same,relative viability,A-427; first compound 8 µM,0.597
same,relative viability,BEN; first compound 0.08 µM,1.22
same,relative viability,BEN; first compound 0.253 µM,1.07
same,relative viability,BEN; first compound 0.8 µM,1.04
same,relative viability,BEN; first compound 2.53 µM,0.771
same,relative viability,BEN; first compound 8 µM,0.914
same,relative viability,COR-L23; first compound 0.08 µM,0.353
same,relative viability,COR-L23; first compound 0.253 µM,0.216
same,relative viability,COR-L23; first compound 0.8 µM,0.284
same,relative viability,COR-L23; first compound 2.53 µM,0.325
same,relative viability,COR-L23; first compound 8 µM,0.319
same,relative viability,EKVX; first compound 0.08 µM,0.811
same,relative viability,EKVX; first compound 0.253 µM,0.884
same,relative viability,EKVX; first compound 0.8 µM,0.837
same,relative viability,EKVX; first compound 8 µM,0.759
same,relative viability,EMC-BAC-2; first compound 0.08 µM,0.506
same,relative viability,EMC-BAC-2; first compound 0.253 µM,0.464
same,relative viability,EMC-BAC-2; first compound 0.8 µM,0.475
same,relative viability,EMC-BAC-2; first compound 2.53 µM,0.389
same,relative viability,EMC-BAC-2; first compound 8 µM,0.389
same,relative viability,EPLC-272H; first compound 0.08 µM,0.874
same,relative viability,EPLC-272H; first compound 0.253 µM,0.878
same,relative viability,EPLC-272H; first compound 0.8 µM,0.702
same,relative viability,EPLC-272H; first compound 2.53 µM,0.701
same,relative viability,EPLC-272H; first compound 8 µM,0.436
same,relative viability,HCC-44; first compound 0.08 µM,0.998
same,relative viability,HCC-44; first compound 0.253 µM,0.944
same,relative viability,HCC-44; first compound 0.8 µM,0.962
same,relative viability,HCC-44; first compound 2.53 µM,0.905
same,relative viability,HCC-44; first compound 8 µM,0.919
same,relative viability,LCLC-103H; first compound 0.08 µM,0.8
same,relative viability,LCLC-103H; first compound 0.253 µM,0.719
same,relative viability,LCLC-103H; first compound 0.8 µM,0.697
same,relative viability,LCLC-103H; first compound 2.53 µM,0.641
same,relative viability,LCLC-103H; first compound 8 µM,0.767
same,relative viability,LXF-289; first compound 0.08 µM,1.05
same,relative viability,LXF-289; first compound 0.253 µM,1.11
same,relative viability,LXF-289; first compound 0.8 µM,1.01
same,relative viability,LXF-289; first compound 2.53 µM,0.992
same,relative viability,LXF-289; first compound 8 µM,1.06
same,relative viability,NCI-H1650; first compound 0.08 µM,0.802
same,relative viability,NCI-H1650; first compound 0.253 µM,0.878
same,relative viability,NCI-H1650; first compound 0.8 µM,0.827
same,relative viability,NCI-H1650; first compound 8 µM,0.818
same,relative viability,NCI-H1651; first compound 0.08 µM,0.196
same,relative viability,NCI-H1651; first compound 0.253 µM,0.206
same,relative viability,NCI-H1651; first compound 0.8 µM,0.189
same,relative viability,NCI-H1651; first compound 2.53 µM,0.173
same,relative viability,NCI-H1651; first compound 8 µM,0.167
same,relative viability,NCI-H1793; first compound 0.08 µM,0.766
same,relative viability,NCI-H1793; first compound 0.253 µM,0.988
same,relative viability,NCI-H1793; first compound 2.53 µM,0.705
same,relative viability,NCI-H1793; first compound 8 µM,0.83
same,relative viability,NCI-H2023; first compound 0.08 µM,0.529
same,relative viability,NCI-H2023; first compound 0.253 µM,0.579
same,relative viability,NCI-H2023; first compound 0.8 µM,0.436
same,relative viability,NCI-H2023; first compound 8 µM,0.395
same,relative viability,NCI-H2087; first compound 0.08 µM,0.643
same,relative viability,NCI-H2087; first compound 0.253 µM,0.626
same,relative viability,NCI-H2087; first compound 0.8 µM,0.584
same,relative viability,NCI-H2087; first compound 2.53 µM,0.468
same,relative viability,NCI-H2087; first compound 8 µM,0.423
same,relative viability,NCI-H2126; first compound 0.08 µM,0.881
same,relative viability,NCI-H2126; first compound 0.253 µM,0.927
same,relative viability,NCI-H2126; first compound 0.8 µM,0.858
same,relative viability,NCI-H2126; first compound 2.53 µM,0.878
same,relative viability,NCI-H2126; first compound 8 µM,0.894
same,relative viability,NCI-H3122; first compound 0.08 µM,0.662
same,relative viability,NCI-H3122; first compound 0.253 µM,0.636
same,relative viability,NCI-H3122; first compound 0.8 µM,0.567
same,relative viability,NCI-H3122; first compound 2.53 µM,0.51
same,relative viability,NCI-H3122; first compound 8 µM,0.635
same,relative viability,NCI-H322M; first compound 0.08 µM,0.764
same,relative viability,NCI-H322M; first compound 0.253 µM,0.965
same,relative viability,NCI-H322M; first compound 0.8 µM,0.754
same,relative viability,NCI-H322M; first compound 8 µM,0.764
same,relative viability,NCI-H358; first compound 0.08 µM,0.642
same,relative viability,NCI-H358; first compound 0.253 µM,0.623
same,relative viability,NCI-H358; first compound 0.8 µM,0.534
same,relative viability,NCI-H358; first compound 8 µM,0.575
same,relative viability,NCI-H596; first compound 0.08 µM,0.73
same,relative viability,NCI-H596; first compound 0.253 µM,0.686
same,relative viability,NCI-H596; first compound 0.8 µM,0.626
same,relative viability,NCI-H596; first compound 2.53 µM,0.601
same,relative viability,NCI-H596; first compound 8 µM,0.656
same,relative viability,SK-LU-1; first compound 0.08 µM,0.465
same,relative viability,SK-LU-1; first compound 0.253 µM,0.451
same,relative viability,SK-LU-1; first compound 0.8 µM,0.454
same,relative viability,SK-LU-1; first compound 2.53 µM,0.393
same,relative viability,SK-LU-1; first compound 8 µM,0.377
same,relative viability,SW 1573; first compound 0.08 µM,0.485
same,relative viability,SW 1573; first compound 0.253 µM,0.547
same,relative viability,SW 1573; first compound 0.8 µM,0.505
same,relative viability,SW 1573; first compound 2.53 µM,0.309
same,relative viability,SW 1573; first compound 8 µM,0.224
same,relative viability,UMC-11; first compound 0.08 µM,0.37
same,relative viability,UMC-11; first compound 0.253 µM,0.38
same,relative viability,UMC-11; first compound 0.8 µM,0.352
same,relative viability,UMC-11; first compound 2.53 µM,0.27
same,relative viability,UMC-11; first compound 8 µM,0.335
